“Also recorded” adds a separate entry of the source. Where a SMILES comes first, the peptide text is derived from it. The star is where a group is joined. Cbz = O=C(OCc1ccccc1)*
Key:
[1] = target: IKZF3 136-180 and 236-249-tagged CD19 (Homo sapiens, UniProt P15391); conditions: 10 μM MG132 pre-treatment, 10 μM lenalidomide
Description: In particular, flow cytometry analysis was conducted to determine whether there was a difference between the total amount of target protein degraded and the total amount of target protein expressed on the cell surface.
CD19 was stained with anti-human CD19 antibody (BD Pharmingen 555413).

[2] = tested on: HilD-tagged CAR19 or FurON-CAR19 (NFAT luciferase reporter); assay: JNL NFAT luciferase reporter assay, lenalidomide dose-response at three treatment time points; format: cell-based, human
Description: This study used the JNL cell line described above, which is a Jurkat cell line modified with an NFAT luciferase reporter. Co-culturing of CAR19-expressing JNL cells and CD19-expressing B cells activates the NFAT signaling, leading to luciferase expression.
For target cell co-culture, K562 cells or CD19-expressing K562 cells were added to each well containing JNL cells and cultured on a GNF Systems Ultra-high throughput screening system in a 37° C. and 5% CO2 incubator.

[3] = tested on: IKZF3 degron-tagged melanogenesis associated transcription factor (MITF); assay: Western blot of IKZF3-tagged MITF in HEK293T cells; format: cell-based, human; conditions: for degradation of tagged MITF mediated by IMiD: 10 μM compound for 24 hours, IKZF3 136-180 and 236-249- and lysine free-tagged MITF; for ability of the tag to mediate lenalidomide-dependent degradation of MITF: HEK293T, Western blot
Description: IKZF3-based degradation tags were evaluated for their ability to facilitate the degradation of melanogenesis associated transcription factor (MITF) or avian myelocytomatosis viral oncogene (MYC) homolog by Western blot. In addition to the IKZF3-based degradation tags, MITF and MYC were also fused to a FLAG tag to facilitate their detection using an anti-FLAG antibody.
DMSO was used as vehicle control.

[4] = target: T1, IKZF3 136-180 and 236-249-tagged NanoLuciferase (Homo sapiens, UniProt Q96SW2+Q9UKT9, DEL181-196/S197T); format: cell-based; conditions: 1-hour pre-treatment (10 μM MG132; 128 or 12.8 ng/mL cyclohexamide)
T1 construct: expressed in transfected cells; host or cells: HEK293T
Description: DMSO was included as a vehicle control. Luminescence was measured by reading each 384-well plate on a ViewLux® with 1-second and 5-second exposures. The data was imported into Spotfire® and visualizations were made by doing a NC3 normalization according to the following formula: 100*([Luminescence]/[DMSO]).

[5] = tested on: IKZF3 136-180 and 236-249-tagged NanoLuciferase; conditions: 10 μM MG132 one-hour pre-treatment, then 100 μM lenalidomide
Description: Samples were pelleted, lysed, run on a protein gel, transferred to a membrane, probed with antibody and developed with film.

[6] = target: T2, HilD-Tau (wild type) (Homo sapiens, UniProt P10636+Q96SW2); assay: Quantification of HilD-Tau degradation by Western analysis in HEK293T cells; format: cell-based; conditions: 1 μM MLN4924 co-treatment including 1 hour pretreatment
T2 construct: expressed in transfected cells; host or cells: HEK293T
Description: One day prior to transfection, HEK293T cells were plated at a density of 150,000 per well in a 24 well plate. […] Cells were incubated overnight. […] Plates were incubated on ice with occasional shaking for 15 minutes. Lysate was then cleared by centrifugation at 15000 g, 4° C. for 15 minutes. LDS buffer and reducing agent were added to the cleared lysate and then samples were heated at 95° C. for 8 minutes. Samples were run on a 10% bis-tris gel at 150V for 70 minutes. Blots were transferred using the Biorad turboblot (Mixed molecular weight setting). Blots were probed with DAKO Tau (total tau) (Dako #A0024), actin (Cell signaling technologies #3700S), and AT8 (phospho-Tau) (Thermo Fisher #MN1020).

[7] = tested on: NanoLuciferase fused to various IKZF3-based degradation tags; assay: Western blot of variant IKZF3-based degradation tags fused to NanoLuciferase in HEK293T cells; format: cell-based, human; conditions: tag fused to N-terminus of NanoLuciferase
Description: Additionally, the IKZF3-based degradation tags were modified using the following strategies:
(1) deleting N-terminal and/or C-terminal amino acid residues;
Protein degradation was measured using western blot as described in Example 2.

[8] = tested on: CAR19 fused to HilD tag and/or FurON; assay: Western blot of CAR19 fused to HilD tag and/or FurON in JNL cells; format: cell-based, human; conditions: 10 μM lenalidomide, 24 hours; FurON constructs with 1 μM bazedoxifene
Description: Viruses were prepared from maxi preps and used to transduce JNL cells. Either 275 μL of viral supernatant or 700 μL of viral supernatant was used for transduction. JNL cells are Jurkat cells engineered with a luciferase gene under control of the NFAT promoter.
Briefly, cells were diluted to 0.5×10^6 in 3 mL total in 6 well dishes. […] Bazedoxifene was added at a final concentration of 1 μM to every well that contained a cell line expressing a fusion comprising FurON. […] Cells were incubated at 37° C. and 5% CO2 overnight.
Lysates were centrifuged, supernatant transferred to new tubes and protein quantities read by Lowry Assay (BioRad 5000111). Each sample was normalized to 30 μg total protein in a 20 μL volume with 4× sample buffer (Thermo Scientific NP0007) and 10× reducing agent (Thermo Scientific NP0009). Samples were subjected to Western blot analysis using a mouse anti-V5 antibody (Thermo Scientific MA5-15253) at 1:1000 dilution, a mouse anti-actin antibody (Sigma Aldrich A5441) at 1:10000 dilution, and/or a mouse anti-CD3z antibody (BD 551034) at 1:1000 dilution.
Cells were harvested and subjected to Western blot as described above using a mouse anti-actin antibody (Sigma Aldrich A5441) at 1:10000 dilution or a mouse anti-CD3zeta antibody (BD 551034) at 1:1000 dilution.

CC(C)C[C@@H](C=O)NC(=O)[C@H](CC(C)C)NC(=O)[C@H](CC(C)C)NC(=O)OCc1ccccc1 [MG132] (Cbz-Leu-Leu-Leu-aldehyde)
effect of MG132 on lenalidomide-induced reduction of surface CD19 [1]: partially blocked
rescue by MG132 of lenalidomide-induced reduction of reporter signal ([2]; HilD-tagged CAR19 or lysine-free-HilD-tagged CAR19 (constructs 769, 770)): partially rescued
rescue by MG132 of lenalidomide-induced reduction of reporter activation ([2]; construct 767, MG132 5 hours prior to target cells): mostly rescued
effect of MG132 on lenalidomide-dependent degradation of tagged MITF ([3]; MG132 treatment): blocked
effect of pre-treatment on lenalidomide-dependent degradation of NanoLuciferase [4]: blocked
effect of MG132 on lenalidomide-dependent degradation [5]: not observed; also recorded: blocked

NS(=O)(=O)OC[C@@H]1C[C@@H](n2ccc3c(N[C@H]4CCc5ccccc54)ncnc32)C[C@@H]1O [MLN4924]
effect of MLN4924 on lenalidomide-induced degradation of Tau [6]: sensitive; also recorded: prevented degradation of Tau

C[C@@H]1C[C@@H]([C@H](O)CC2CC(=O)NC(=O)C2)C(=O)[C@@H](C)C1 [cyclohexamide]
effect of pre-treatment on lenalidomide-dependent degradation of NanoLuciferase [4]: No obvious reduction

Nc1cccc2c1C(=O)N(C1CCC(=O)NC1=O)C2=O (centres unmarked) [pomalidomide, 4-amino-2-(2,6-dioxopiperidin-3-yl)isoindoline-1,3-dione, reference compound]
degradation of tagged MITF mediated by IMiD [3]: effectively facilitated degradation of tagged MITF
degradation of tagged MITF mediated by IMiD ([3]; listed as Pomalidomide): slightly greater extent than lenalidomide

O=C1CCC(N2C(=O)c3ccccc3C2=O)C(=O)N1 (centres unmarked) [thalidomide, 2-(2,6-dioxopiperidin-3-yl)isoindoline-1,3-dione, reference compound]
degradation of tagged MITF mediated by IMiD [3]: much less effective

IKZF3 136-180 Q147H: variant of IKZF3 136-180 with glutamine at position 147 replaced with histidine, SEQ ID NO: 27
ability of the tag to mediate lenalidomide-dependent degradation of MITF [3]: blocked the ability of IKZF3 136-180 to mediate the lenalidomide-dependent degradation of MITF; also recorded: did not show degradation

IKZF3 136-180 and 236-249: IKZF3-based degradation tag with amino acid residues 136-180 and 236-249 of human IKZF3, SEQ ID NO: 3 (HKRSHTGERPFQCNQCGASFTQKGNLLRHIKLHTGEKPFKCHLCNTASAEARHIKAEMG; source: /note="Description of Unknown: IKZF3 sequence")
ability of the tag to facilitate lenalidomide-dependent degradation of NanoLuciferase [7]: facilitated lenalidomide-dependent degradation of NanoLuciferase; also recorded: facilitated lenalidomide-induced degradation
ability of the tag to mediate lenalidomide-dependent degradation of MITF [3]: more effective than IKZF3 136-180

IKZF3 136-180: tag with amino acid residues 136-180 of IKZF3, SEQ ID NO: 5
ability of the tag to facilitate lenalidomide-dependent degradation of NanoLuciferase [7]: able to mediate lenalidomide-dependent degradation
ability of the tag to mediate lenalidomide-dependent degradation of MITF [3]: to a lesser degree than IKZF3 136-180 and 236-249

IKZF3 141-163 MALEK: tag comprising the amino acid sequence of SEQ ID NO: 88 (TGERPFQCNQCGASFTQKGNLLRMALEKMALEKMALE; source: /note="Description of Unknown: IKZF3 sequence")
ability of the tag to facilitate lenalidomide-dependent degradation of NanoLuciferase [7]: did not mediate lenalidomide-induced degradation; also recorded: did not mediate lenalidomide induced degradation

IKZF3 145-155 MALEK: tag comprising the amino acid sequence of SEQ ID NO: 89 (PFQCNQCGASFMALEKMALEKMALE; source: /note="Description of Unknown: IKZF3 sequence")
ability of the tag to facilitate lenalidomide-dependent degradation of NanoLuciferase [7]: did not mediate lenalidomide-induced degradation; also recorded: did not mediate lenalidomide induced degradation

lysine free IKZF3 136-180 and 236-249: variant in which every lysine residue in the tag was mutated to arginine, SEQ ID NO: 4
ability of the tag to mediate lenalidomide-dependent degradation of MITF [3]: did not significantly impact the ability of this tag to mediate lenalidomide-dependent degradation of MITF

B1: construct 765: signal peptide, FurOn, and CAR19 (protein)
chain: RSSLALSLTADQMVSALLDAEPPILYSEYDPTRPFSEASMMGLLTNLADRELVHMINWAKRVPGFVDLALHDQVHLLECAWMEILMIGLVWRSMEHPGKLLFAPNLLLDRNQGKCVEGGVEIFDMLLATSSRFRMMNLQGEEFVCLKSIILLNSGVYTFLSSTLKSLEEKDHIHRVLDKITDTLIHLMAKAGLTLQQQHQRLAQLLLILSHIRHMSSKRMEHLYSMKCKNVVPLSDLLLEMLDAHRLGTGAEDPRPSRKRRSLGDVGEIVMTQSPATLSLSPGERATLSCRASQDISKYLNWYQQKPGQAPRLLIYHTSRLHSGIPARFSGSGSGTDYTLTISSLQPEDFAVYFCQQGNTLPYTFGQGTKLEIKGGGGSGGGGSGGGGSQVQLQESGPGLVKPSETLSLTCTVSGVSLPDYGVSWIRQPPGKGLEWIGVIWGSETTYYQSSLKSRVTISKDNSKNQVSLKLSSVTAADTAVYYCAKHYYYGGSYAMDYWGQGTLVTVSSTTTPAPRPPTPAPTIASQPLSLRPEACRPAAGGAVHTRGLDFACDIYIWAPLAGTCGVLLLSLVITLYCKRGRKKLLYIFKQPFMRPVQTTQEEDGCSCRFPEEEEGGCELRVKFSRSADAPAYQQGQNQLYNELNLGRREEYDVLDKRRGRDPEMGGKPRRKNPQEGLYNELQKDKMAEAYSEIGMKGERRRGKGHDGLYQGLSTATKDTYDALHMQALPPR
effect of lenalidomide on the CAR construct (Western blot) [8]: did not have any impact

Reference: patent publication US20220251152A1, “COMPOSITIONS AND METHODS FOR SELECTIVE PROTEIN DEGRADATION” (Novartis AG, priority 2019, published 2022)
